Data: PubChem BioAssay AID2060884 (Molecular Pharmacology Branch, DTP, NCI, 2025)
pIC50: −log10 of the molar value.

System: NCI-H929 complex spheroids, viability % test/control
Experiment: Anticancer human tumor NCI-H929 cell line growth inhibition [RAS];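 also: compound exposure lasted seven days before viability was read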;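 as to viability, T/C: 100% = DMSO vehicle control viability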
Conditions: for pIC50: curve of first compound; for viability, T/C: stronger effect = lower value
Outline: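 Agents were tested in combination matrices in half-log decrements from a top concentration at or near clinical Cmax (10 microM if undetermined). Targets were multi-cell spheroids of tumour lines plus HUVEC and MSC stromal cells.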

[1] = second compound 0.000949 µM, first compound 0.0316 µM
[2] = second compound 0.000949 µM, first compound 0.1 µM
[3] = second compound 0.000949 µM, first compound 0.316 µM
[4] = second compound 0.000949 µM, first compound 1 µM
[5] = second compound 0.000949 µM, first compound 3.16 µM
[6] = second compound 0.000949 µM, first compound 10 µM
[7] = second compound 0.003 µM, first compound 0.0316 µM
[8] = second compound 0.003 µM, first compound 0.1 µM
[9] = second compound 0.003 µM, first compound 0.316 µM
[10] = second compound 0.003 µM, first compound 1 µM
[11] = second compound 0.003 µM, first compound 3.16 µM
[12] = second compound 0.003 µM, first compound 10 µM
[13] = second compound 0.00949 µM, first compound 0.0316 µM
[14] = second compound 0.00949 µM, first compound 0.1 µM
[15] = second compound 0.00949 µM, first compound 0.316 µM
[16] = second compound 0.00949 µM, first compound 1 µM
[17] = second compound 0.00949 µM, first compound 3.16 µM
[18] = second compound 0.00949 µM, first compound 10 µM
[19] = second compound 0.03 µM, first compound 0.0316 µM
[20] = second compound 0.03 µM, first compound 0.1 µM
[21] = second compound 0.03 µM, first compound 0.316 µM
[22] = second compound 0.03 µM, first compound 1 µM
[23] = second compound 0.03 µM, first compound 3.16 µM
[24] = second compound 0.03 µM, first compound 10 µM
[25] = second compound 0.0949 µM, first compound 0.0316 µM
[26] = second compound 0.0949 µM, first compound 0.1 µM
[27] = second compound 0.0949 µM, first compound 0.316 µM
[28] = second compound 0.0949 µM, first compound 1 µM
[29] = second compound 0.0949 µM, first compound 3.16 µM
[30] = second compound 0.0949 µM, first compound 10 µM
[31] = second compound 0.3 µM, first compound 0.0316 µM
[32] = second compound 0.3 µM, first compound 0.1 µM
[33] = second compound 0.3 µM, first compound 0.316 µM
[34] = second compound 0.3 µM, first compound 1 µM
[35] = second compound 0.3 µM, first compound 3.16 µM
[36] = second compound 0.3 µM, first compound 10 µM

With `CC1(O)CCCC1n1c(=O)c(C(F)F)cc2cnc(NC3CCN(S(C)(=O)=O)CC3)nc21` (stereo not drawn) + CCn1c(-c2cc(N3CCN(C)CC3)cnc2C(C)OC)c2c3cc(ccc31)-c1csc(n1)CC(NC(=O)C1CC1C)C(=O)N1CCCC(N1)C(=O)OCC(C)(C)C2 the pIC50 (second compound 0.000949 µM) was 6.73, the pIC50 (second compound 0.003 µM) was 6.72 and the pIC50 (second compound 0.00949 µM) was 6.70. For the same molecule, the pIC50 (second compound 0.03 µM) was 7.24, the pIC50 (second compound 0.0949 µM) was greater than 7.50 and the pIC50 (second compound 0.3 µM) was greater than 7.50. It also gave a viability, T/C [1] of 109%, a viability, T/C [2] of 106% and a viability, T/C [3] of 3.79%. The viability, T/C [4] was 4.11%, the viability, T/C [5] was 3.8% and the viability, T/C [6] was 0.15%. The viability, T/C [7] was 103%, the viability, T/C [8] was 115% and the viability, T/C [9] was 2.16%. For the same molecule, the viability, T/C [10] was 7.09%, the viability, T/C [11] was 7.23% and the viability, T/C [12] was 0.06%. It also gave a viability, T/C [13] of 113%, a viability, T/C [14] of 117% and a viability, T/C [15] of 4.34%. For the same molecule, the viability, T/C [16] was 14.1%, the viability, T/C [17] was 8.7% and the viability, T/C [18] was 0.05%. The viability, T/C [19] was 72.2%, the viability, T/C [20] was 29.5% and the viability, T/C [21] was 4.66%. The viability, T/C [22] was 9.27%, the viability, T/C [23] was 2.06% and the viability, T/C [24] was 0.13%. It also gave a viability, T/C [25] of 6.97%, a viability, T/C [26] of 4.65% and a viability, T/C [27] of 3.2%. It also gave a viability, T/C [28] of 2.92%, a viability, T/C [29] of 0.85% and a viability, T/C [30] of 0.09%. It also gave a viability, T/C [31] of 3.5%, a viability, T/C [32] of 2.32% and a viability, T/C [33] of 2.57%. For the same molecule, the viability, T/C [34] was 1.68%, the viability, T/C [35] was 0.72% and the viability, T/C [36] was 8.23%.
`CCC(CC)c1cc(NC2CCC(N)C2)n2nccc2n1` (stereo not drawn) + CCn1c(-c2cc(N3CCN(C)CC3)cnc2C(C)OC)c2c3cc(ccc31)-c1csc(n1)CC(NC(=O)C1CC1C)C(=O)N1CCCC(N1)C(=O)OCC(C)(C)C2 gave a pIC50 (second compound 0.000949 µM) of 5.84, a pIC50 (second compound 0.003 µM) of 5.79 and a pIC50 (second compound 0.00949 µM) of 6.13. The pIC50 (second compound 0.03 µM) was greater than 7.50, the pIC50 (second compound 0.0949 µM) was greater than 7.50 and the pIC50 (second compound 0.3 µM) was greater than 7.50. It also gave a viability, T/C [1] of 104%, a viability, T/C [2] of 94.4% and a viability, T/C [3] of 101%. The viability, T/C [4] was 72.3%, the viability, T/C [5] was 0.36% and the viability, T/C [6] was 0.25%. It also gave a viability, T/C [7] of 96.1%, a viability, T/C [8] of 93.5% and a viability, T/C [9] of 102%. For the same molecule, the viability, T/C [10] was 85.8%, the viability, T/C [11] was 0.43% and the viability, T/C [12] was 0.14%. The viability, T/C [13] was 114%, the viability, T/C [14] was 117% and the viability, T/C [15] was 115%. It also gave a viability, T/C [16] of 26.6%, a viability, T/C [17] of 0.16% and a viability, T/C [18] of 0.13%. For the same molecule, the viability, T/C [19] was 36.7%, the viability, T/C [20] was 34.9% and the viability, T/C [21] was 49.8%. The viability, T/C [22] was 2.49%, the viability, T/C [23] was 0.12% and the viability, T/C [24] was 0.1%. For the same molecule, the viability, T/C [25] was 6.21%, the viability, T/C [26] was 6.5% and the viability, T/C [27] was 6.35%. For the same molecule, the viability, T/C [28] was 0.97%, the viability, T/C [29] was 0.11% and the viability, T/C [30] was 0.09%. The viability, T/C [31] was 4.59%, the viability, T/C [32] was 3.76% and the viability, T/C [33] was 2.94%. It also gave a viability, T/C [34] of 1.37%, a viability, T/C [35] of 0.14% and a viability, T/C [36] of 0.12%.
`Cc1nc(N2CCC3(CC2)COC(C)C3N)c(CO)nc1Sc1ccnc(N)c1Cl` (stereo not drawn) + CCn1c(-c2cc(N3CCN(C)CC3)cnc2C(C)OC)c2c3cc(ccc31)-c1csc(n1)CC(NC(=O)C1CC1C)C(=O)N1CCCC(N1)C(=O)OCC(C)(C)C2 gave a pIC50 (second compound 0.000949 µM) of less than 5.00, a pIC50 (second compound 0.003 µM) of less than 5.00 and a pIC50 (second compound 0.00949 µM) of less than 5.00. The pIC50 (second compound 0.03 µM) was greater than 7.50, the pIC50 (second compound 0.0949 µM) was greater than 7.50 and the pIC50 (second compound 0.3 µM) was greater than 7.50. It also gave a viability, T/C [1] of 104%, a viability, T/C [2] of 96.9% and a viability, T/C [3] of 108%. The viability, T/C [4] was 105%, the viability, T/C [5] was 113% and the viability, T/C [6] was 108%. For the same molecule, the viability, T/C [7] was 101%, the viability, T/C [8] was 102% and the viability, T/C [9] was 104%. It also gave a viability, T/C [10] of 107%, a viability, T/C [11] of 110% and a viability, T/C [12] of 107%. The viability, T/C [13] was 118%, the viability, T/C [14] was 123% and the viability, T/C [15] was 118%. The viability, T/C [16] was 124%, the viability, T/C [17] was 88.4% and the viability, T/C [18] was 119%. The viability, T/C [19] was 31.8%, the viability, T/C [20] was 25.4% and the viability, T/C [21] was 27.2%. For the same molecule, the viability, T/C [22] was 27.8%, the viability, T/C [23] was 24.9% and the viability, T/C [24] was 19.7%. It also gave a viability, T/C [25] of 6.44%, a viability, T/C [26] of 6.29% and a viability, T/C [27] of 4.23%. For the same molecule, the viability, T/C [28] was 5.24%, the viability, T/C [29] was 4.2% and the viability, T/C [30] was 2.67%. The viability, T/C [31] was 4.38%, the viability, T/C [32] was 3.24% and the viability, T/C [33] was 2.87%. It also gave a viability, T/C [34] of 3.05%, a viability, T/C [35] of 2.74% and a viability, T/C [36] of 1.82%.
Work on `NC1c2ccccc2OC12CCN(c1cnc3c(N4CCCc5ncccc54)n[nH]c3n1)CC2` (stereo not drawn) + CCn1c(-c2cc(N3CCN(C)CC3)cnc2C(C)OC)c2c3cc(ccc31)-c1csc(n1)CC(NC(=O)C1CC1C)C(=O)N1CCCC(N1)C(=O)OCC(C)(C)C2 yielded a pIC50 (second compound 0.000949 µM) of less than 5.00, a pIC50 (second compound 0.003 µM) of less than 5.00 and a pIC50 (second compound 0.00949 µM) of less than 5.00. The pIC50 (second compound 0.03 µM) was greater than 7.50, the pIC50 (second compound 0.0949 µM) was greater than 7.50 and the pIC50 (second compound 0.3 µM) was greater than 7.50. For the same molecule, the viability, T/C [1] was 107%, the viability, T/C [2] was 104% and the viability, T/C [3] was 108%. It also gave a viability, T/C [4] of 108%, a viability, T/C [5] of 113% and a viability, T/C [6] of 78.6%. It also gave a viability, T/C [7] of 107%, a viability, T/C [8] of 108% and a viability, T/C [9] of 109%. The viability, T/C [10] was 111%, the viability, T/C [11] was 109% and the viability, T/C [12] was 80.9%. For the same molecule, the viability, T/C [13] was 121%, the viability, T/C [14] was 128% and the viability, T/C [15] was 128%. For the same molecule, the viability, T/C [16] was 125%, the viability, T/C [17] was 121% and the viability, T/C [18] was 87.8%. For the same molecule, the viability, T/C [19] was 15.4%, the viability, T/C [20] was 13.8% and the viability, T/C [21] was 14.9%. The viability, T/C [22] was 12.7%, the viability, T/C [23] was 18.3% and the viability, T/C [24] was 12%. For the same molecule, the viability, T/C [25] was 3.25%, the viability, T/C [26] was 2.4% and the viability, T/C [27] was 2.09%. It also gave a viability, T/C [28] of 2.07%, a viability, T/C [29] of 1.88% and a viability, T/C [30] of 0.76%. It also gave a viability, T/C [31] of 1.75%, a viability, T/C [32] of 1.24% and a viability, T/C [33] of 0.73%. It also gave a viability, T/C [34] of 0.89%, a viability, T/C [35] of 1.51% and a viability, T/C [36] of 0.19%.
